In patent publication US10182500B2, “Curable composition for photoimprint, cured product, and method of producing film having pattern, optical component, circuit board, or electronic component using the composition” (CANON KABUSHIKI KAISHA, priority 2014, dated 2019):
Like-named read-outs stand apart in the source and are kept apart here.

Experiments:
[1] = composition mainly composed of an acrylic monomer; cited from earlier work
[2] = 1 h
Description: (§1) An arbitrary amount of a photopolymerization initiator is weighed in a sample bottle at 23° C., and a condensable gas cooled to 5° C. to a liquid state is gradually added to the bottle until the photopolymerization initiator is completely dissolved. The sample bottle is capped and is left to stand in a refrigerator at 5° C. for 1 hour. The sample bottle is then subjected to visual observation whether the photopolymerization initiator is completely dissolved. The weight of the weighed photopolymerization initiator is divided by the sum of the weight of the photopolymerization initiator and the weight of the condensable gas in a liquid state, and the resulting quotient is expressed in percentage as the saturated solubility.
(§2) The sample bottle was capped and was left to stand in a refrigerator at 5° C. for 1 hour. The sample bottle was then visually observed.

[3] = Saturated solubility in liquid condensable gas (PFP), visual observation; conditions: for Saturated solubility: to PFP, liquid state at 5° C. and 1 atm
Description: as §1, §2

SMILES: FC(F)CC(F)(F)F [1,1,1,3,3-pentafluoropropane]
- PFP dissolved in curable composition for photoimprint [1]: about 40 % by volume

SMILES: Cc1cc(C)c(C(=O)P(=O)(c2ccccc2)c2ccccc2)c(C)c1 [Formula (1), 2,4,6-trimethylbenzoyldiphenylphosphine oxide]
- Saturated solubility [2]: <1.0 % by weight
- saturated solubility [2]: less than 1 % by weight

SMILES: CC(C)c1ccc2sc3ccccc3c(=O)c2c1 [Formula (3), 2-isopropylthioxanthone]
- Saturated solubility [3]: <1.0 % by weight

SMILES: CCN(CC)c1ccc(C(=O)c2ccc(N(CC)CC)cc2)cc1 [Formula (4), 4,4′-bis(diethylamino)benzophenone]
- Saturated solubility [3]: <1.0 % by weight

SMILES: COC(OC)(C(=O)c1ccccc1)c1ccccc1 [Formula (6), benzyl dimethyl ketal]
- saturated solubility ([3]; at 5° C. in PFP being a liquid state at 5° C. and 1 atm): higher than 2.67 % by weight
